We go through one substance from patent US20230159620A1, “COMPOSITIONS AND METHODS OF TREATMENT FOR VASCULAR DISEASES AND THROMBOSIS” (Washington University, priority 2021, published 2023).

Assay [1] has as its system Notch. As to conditions: 4 hours on SVEP1 vs BSA. How it is done: Cells were collected, resuspended in SFM, and incubated for 1 hr with gentle agitation before seeding on tissue culture wells that were precoated and blocked, as described in previous sections. Cells were collected for analysis after 4 hr of growth on the indicated substrate. Svep1SMC+/+ and Svep1SMCΔ/Δ VSMCs were collected for analysis after 72 hr of incubation in SFM to obtain basal Notch signaling.

Assay [2] relates to AKT. The following applies: BSA, N-terminal, C-terminal and full-length SVEP1.
The subject of assay [3] is AKT. Nature of the assay: AKT signaling immunoblot, hCASMCs. It is filed as cell-based, human. The following applies: relative to BSA controls. How it is done: (§1) Cellular reagents were purchased from various commercial vendors. Primary human umbilical vein endothelial cells (HUVECs) were obtained from Cell Applications Inc. and cultured according to the manufacture's recommendations. Primary human coronary artery smooth muscle cells were obtained from Invitrogen and were cultured according to the manufacture's recommendations. 293T cells were obtained from ATCC and were cultured according to the manufacture's recommendations. Mouse primary smooth muscle cells were obtained and cultured as described previously. Predesigned Silencer Select siRNA constructs targeting Pearl 1 and negative control siRNA were obtained from ThermoFisher. Transfections were performed using RNAiMAX or Lipofectamine 3000 transfection reagents according to the manufacturer's protocols. Cells were used for signaling assays 48 hours after transfection; efficient Pearl 1 knockdown or Pearl 1 overexpression was confirmed by immunoblot assays.
(§2) Prior to performing signaling assays, cells were trypsinized, centrifuged, suspended in basal media, and counted using an automated hemocytometer. Cells were further diluted in basal media to an assay-dependent concentration. […] Protein content was determined using a bicinchoninic acid assay with BSA standards (#23225, Pierce BCA Protein Assay Kit). […]
In general terms: A western blot detects proteins with antibodies after separation by electrophoresis.

The subject of assay [4] is integrin signaling kinases. Nature of the assay: Integrin signaling western blot, VSMCs. It is filed as cell-based, mouse. As to conditions: VSMCs adherent to coated wells, relative to inert protein control. Here is the method:
Cells were resuspended in serum-free media (SFM) and incubated with gentle agitation to prevent cell attachment and reduce basal signaling. […] Cells were briefly centrifuged to the bottom of the wells and incubated for 8 min (for VSMCs) or 15 min (for THP-1 cells) before lysis with cell lysis buffer (#9803, Cell Signaling Technologies) containing a cocktail of protease and phosphatase inhibitors. Western blots were performed by standard techniques, as briefly follows. Protein content was determined using a bicinchoninic acid assay with BSA standards (#23225, Pierce™ BCA Protein Assay Kit). Cell lysates were then reduced with DTT in lithium dodecyl sulfate sample buffer (#NP0007, Invitrogen). Equal protein amounts were added to polyacrylamide gels (#4561086, BioRad) and electrophoresed prior to transferring to a nitrocellulose or polyvinylidene fluoride membrane (#1620260, BioRad). Membranes were blocked in 5% BSA/Tris-Buffered Saline with tween 20 for 30 min. The indicated primary antibodies were incubated with the pre-blocked membranes for overnight at 4° C. Membranes were washed with Tris-Buffered Saline with tween 20, probed with fluorescent secondary antibodies, and imaged. β-actin or β-tubulin served as a loading control.

For assay [5], the system named is mTOR. Nature of the assay: mTOR signaling, phospho-array and immunoblot, HUVECs. It is filed as cell-based, human. How it is done:
Prior to performing signaling assays, cells were trypsinized, centrifuged, suspended in basal media, and counted using an automated hemocytometer. Cells were further diluted in basal media to an assay-dependent concentration. Cells were then incubated with gentle agitation for 60 minutes to prevent cell attachment and reduce basal signaling. PP1, Dynasore, MK-2206, and Rapamycin were diluted in DMSO and used in assay concentrations of 10 μM, 100 μM, 10 μM, and respectively, for the final 20-30 minutes of incubation in basal media. An equal volume of DMSO was used as the negative control condition. […] 1 μg Pearl 1 polyclonal antibody was added as a specific positive control. 20% growth media or 2% fetal bovine serum, labeled “Serum” in figures, was added as a non-specific positive control. The cells were centrifuged at 300G for 3 minutes with the exception of platelets, which were centrifuged at 500G for 5 minutes. The cells were then incubated at 37° C. for 8-45 minutes, depending on the cell type and pathway of interest. The cells were lysed in radioimmunoprecipitation buffer (RIPA) containing a cocktail of protease and phosphatase inhibitors and universal nuclease. Immunoblots were performed by standard techniques, as briefly follows. Protein content was determined using a bicinchoninic acid assay with BSA standards (#23225, Pierce BCA Protein Assay Kit). Cell lysates were then reduced with dithiothreitol (DTT) in lithium dodecyl sulfate (LDS) sample buffer (#NP0007, Invitrogen). Equal protein amounts were added to polyacrylamide gels (#4561086, BioRad) and electrophoresed prior to transferring to a nitrocellulose or polyvinylidene fluoride membrane (#1620260, BioRad). Membranes were blocked in 5% BSA/Tris-buffered saline (TBS) with 0.1% Tween 20 for 30 minutes. The indicated primary antibodies were incubated with the pre-blocked membranes overnight at 4° C. Membranes were washed with TBS with 0.1% Tween 20, probed with fluorescent secondary antibodies, and imaged. β-actin or β-tubulin served as a loading control. […]

Assay [6] deals with VSMCs. Nature of the assay: VSMC adhesion assay. As to conditions: immobilized protein. It is filed as cell-based, mouse. An excerpt:
Plates were ultraviolet (UV) sterilized before adding cells. […] Efficient Itgα9 knockdown was confirmed by qPCR.

Assay [7] deals with Pearl 1ECD (Homo sapiens, UniProt Q5VY43). As to conditions: pulldown assays.
Pearl 1ECD, sequence (Q5VY43 21-755 limits assumed): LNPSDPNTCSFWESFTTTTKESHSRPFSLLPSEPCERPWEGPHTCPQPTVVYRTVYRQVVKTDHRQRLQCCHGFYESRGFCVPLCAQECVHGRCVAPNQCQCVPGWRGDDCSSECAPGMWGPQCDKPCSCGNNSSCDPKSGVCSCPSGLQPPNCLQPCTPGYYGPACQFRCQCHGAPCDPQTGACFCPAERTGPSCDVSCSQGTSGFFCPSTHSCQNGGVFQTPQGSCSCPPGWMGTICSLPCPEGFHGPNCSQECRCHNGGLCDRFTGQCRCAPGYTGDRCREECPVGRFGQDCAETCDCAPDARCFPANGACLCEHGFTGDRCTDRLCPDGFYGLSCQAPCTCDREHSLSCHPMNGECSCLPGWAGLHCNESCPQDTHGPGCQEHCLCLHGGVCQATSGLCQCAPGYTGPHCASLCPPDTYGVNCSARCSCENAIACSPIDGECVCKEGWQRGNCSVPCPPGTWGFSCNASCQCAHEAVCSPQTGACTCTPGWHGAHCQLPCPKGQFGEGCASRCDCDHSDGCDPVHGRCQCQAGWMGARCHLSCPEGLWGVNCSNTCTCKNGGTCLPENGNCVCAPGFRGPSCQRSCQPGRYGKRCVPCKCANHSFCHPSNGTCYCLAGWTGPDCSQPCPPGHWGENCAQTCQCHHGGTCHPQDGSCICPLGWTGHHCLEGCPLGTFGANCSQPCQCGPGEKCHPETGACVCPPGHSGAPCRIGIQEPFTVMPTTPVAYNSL
Description: The assay buffer consisted of lmg/mL BSA, 0.01% Tween 20, and 10 mM Ca^2+ in PBS. The proteins were incubated together for two hours while rotating. Where indicated, 2 μg primary antibodies were added during the final 30 minutes of the initial incubation. Following the incubation, aliquots were reserved as the input fraction. Subsequently, 6-10 μL slurry of Pierce Anti-c-Myc Magnetic Beads, Invitrogen Dynabeads Protein G beads, or Pierce Streptavidin Magnetic Bead slurry were added, followed by a 1-hour incubation at 20° C. with gentle agitation. Beads were washed in PBS +0.01% Tween 20 and resuspended reducing LDS sample buffer and analyzed by immunoblot assay.
Assay [8] concerns the target Fibronectin (Mus musculus, UniProt P11276). As to conditions: enriched VSMC media.
Description: Affinity-based proteomics: Murine VSMCs were grown to confluence in serum-containing media and changed to serum-free media to generate enriched media. […] An aliquot was removed after incubation as the “input” fraction. Media was then added to a slurry of Pierce Anti-c-Myc Magnetic Beads+0.05% Tween 20 and incubated for 30 minutes while rocking at 4° C. The beads were then washed twice with Ca^2+ and Mg^2+-containing PBS (D8662, Sigma) +0.05% Tween 20 and twice with Ca^2+ and Mg^2+-containing PBS before a final resuspension in PBS. An aliquot of the beads was reserved as the pulldown fraction for validation. […] The samples were incubated for 4 hours prior to dialysis. Protease arrest (G-Biosciences) was added and excess biotin was dialyzed using a 10 kDa molecular weight cut-off (MWKO) Slide-A-Lyzer™ dialysis Cassette (ThermoFisher Scientific) in buffered saline+1 mM EDTA. The samples were then transferred to 10 kDa MWKO Vivasin column (Sartorius Stedim Biotech), centrifuged, resuspended in RIPA buffer, centrifuged, and added to pre-washed Pierce Streptavidin Magnetic Beads. The samples and beads were incubated for 1 hour at room temperature or overnight at 4° C. and then washed with the following solutions: RIPA buffer, 1M 732 KCl, 0.1M Na2CO3, 2M urea in 10 mM Tris HCl (pH=8.0), and PBS. The beads were then resuspended in PBS for peptide preparation.
The subject of assay [9] is THP-1 cells.
Description: 2,000 cells were added to each well and incubated for 8 hr to assure complete cell adhesion. […] Adhesion assays were performed in precoated 96-well plates blocked with 100 mg ml-l BSA. Blocking conditions were empirically derived to minimize non-specific cell adhesion. After 5 min (for THP-1 cells) or 15 min (for VSMCs) incubation, non-adhered cells were removed by gently centrifuging the plates upside down. VSMCs were counted manually and THP-1 cells were counted by automated microscopy after staining cells with DAPI.
Assay [10] deals with AKT. Nature of the assay: AKT signaling immunoblot, 293T cells. It is filed as cell-based. How it is done: as §1, §2
Assay [11] relates to platelets. How it is done: Complete blood counts (CBC) and washed platelet counts were determined using a hematology analyzer Element HT5 (Heska, Loveland). […] For flow cytometry, diluted whole blood or isolated platelets were pre-incubated with their respective fluorescent antibodies for 15 minutes and fixed. For murine whole blood: CD41-VioBlue, CD61-PE (Mitlenyi Biotec, Bergisch Gladbach, Germany), CD42b-DL649, GPVI-FITC (Emfret, Eibelstadt, Germany) and for human whole blood and isolated platelets: CD41-FITC, CD61-APC, CD42b-PE (Biolegend, San Diego), GPVI-BV421 617 (BD, Franklin Lakes). Platelet surface receptor levels were quantified by flow cytometry on a 618 CytoFlex analyzer.
Samples were immediately fixed and run using a CytoFlex analyzer (Beckman Coulter, Pasadena) and analysis was performed with Kaluza software (Beckman Coulter, Pasadena).

Fibronectin, sequence (P11276 33-2477): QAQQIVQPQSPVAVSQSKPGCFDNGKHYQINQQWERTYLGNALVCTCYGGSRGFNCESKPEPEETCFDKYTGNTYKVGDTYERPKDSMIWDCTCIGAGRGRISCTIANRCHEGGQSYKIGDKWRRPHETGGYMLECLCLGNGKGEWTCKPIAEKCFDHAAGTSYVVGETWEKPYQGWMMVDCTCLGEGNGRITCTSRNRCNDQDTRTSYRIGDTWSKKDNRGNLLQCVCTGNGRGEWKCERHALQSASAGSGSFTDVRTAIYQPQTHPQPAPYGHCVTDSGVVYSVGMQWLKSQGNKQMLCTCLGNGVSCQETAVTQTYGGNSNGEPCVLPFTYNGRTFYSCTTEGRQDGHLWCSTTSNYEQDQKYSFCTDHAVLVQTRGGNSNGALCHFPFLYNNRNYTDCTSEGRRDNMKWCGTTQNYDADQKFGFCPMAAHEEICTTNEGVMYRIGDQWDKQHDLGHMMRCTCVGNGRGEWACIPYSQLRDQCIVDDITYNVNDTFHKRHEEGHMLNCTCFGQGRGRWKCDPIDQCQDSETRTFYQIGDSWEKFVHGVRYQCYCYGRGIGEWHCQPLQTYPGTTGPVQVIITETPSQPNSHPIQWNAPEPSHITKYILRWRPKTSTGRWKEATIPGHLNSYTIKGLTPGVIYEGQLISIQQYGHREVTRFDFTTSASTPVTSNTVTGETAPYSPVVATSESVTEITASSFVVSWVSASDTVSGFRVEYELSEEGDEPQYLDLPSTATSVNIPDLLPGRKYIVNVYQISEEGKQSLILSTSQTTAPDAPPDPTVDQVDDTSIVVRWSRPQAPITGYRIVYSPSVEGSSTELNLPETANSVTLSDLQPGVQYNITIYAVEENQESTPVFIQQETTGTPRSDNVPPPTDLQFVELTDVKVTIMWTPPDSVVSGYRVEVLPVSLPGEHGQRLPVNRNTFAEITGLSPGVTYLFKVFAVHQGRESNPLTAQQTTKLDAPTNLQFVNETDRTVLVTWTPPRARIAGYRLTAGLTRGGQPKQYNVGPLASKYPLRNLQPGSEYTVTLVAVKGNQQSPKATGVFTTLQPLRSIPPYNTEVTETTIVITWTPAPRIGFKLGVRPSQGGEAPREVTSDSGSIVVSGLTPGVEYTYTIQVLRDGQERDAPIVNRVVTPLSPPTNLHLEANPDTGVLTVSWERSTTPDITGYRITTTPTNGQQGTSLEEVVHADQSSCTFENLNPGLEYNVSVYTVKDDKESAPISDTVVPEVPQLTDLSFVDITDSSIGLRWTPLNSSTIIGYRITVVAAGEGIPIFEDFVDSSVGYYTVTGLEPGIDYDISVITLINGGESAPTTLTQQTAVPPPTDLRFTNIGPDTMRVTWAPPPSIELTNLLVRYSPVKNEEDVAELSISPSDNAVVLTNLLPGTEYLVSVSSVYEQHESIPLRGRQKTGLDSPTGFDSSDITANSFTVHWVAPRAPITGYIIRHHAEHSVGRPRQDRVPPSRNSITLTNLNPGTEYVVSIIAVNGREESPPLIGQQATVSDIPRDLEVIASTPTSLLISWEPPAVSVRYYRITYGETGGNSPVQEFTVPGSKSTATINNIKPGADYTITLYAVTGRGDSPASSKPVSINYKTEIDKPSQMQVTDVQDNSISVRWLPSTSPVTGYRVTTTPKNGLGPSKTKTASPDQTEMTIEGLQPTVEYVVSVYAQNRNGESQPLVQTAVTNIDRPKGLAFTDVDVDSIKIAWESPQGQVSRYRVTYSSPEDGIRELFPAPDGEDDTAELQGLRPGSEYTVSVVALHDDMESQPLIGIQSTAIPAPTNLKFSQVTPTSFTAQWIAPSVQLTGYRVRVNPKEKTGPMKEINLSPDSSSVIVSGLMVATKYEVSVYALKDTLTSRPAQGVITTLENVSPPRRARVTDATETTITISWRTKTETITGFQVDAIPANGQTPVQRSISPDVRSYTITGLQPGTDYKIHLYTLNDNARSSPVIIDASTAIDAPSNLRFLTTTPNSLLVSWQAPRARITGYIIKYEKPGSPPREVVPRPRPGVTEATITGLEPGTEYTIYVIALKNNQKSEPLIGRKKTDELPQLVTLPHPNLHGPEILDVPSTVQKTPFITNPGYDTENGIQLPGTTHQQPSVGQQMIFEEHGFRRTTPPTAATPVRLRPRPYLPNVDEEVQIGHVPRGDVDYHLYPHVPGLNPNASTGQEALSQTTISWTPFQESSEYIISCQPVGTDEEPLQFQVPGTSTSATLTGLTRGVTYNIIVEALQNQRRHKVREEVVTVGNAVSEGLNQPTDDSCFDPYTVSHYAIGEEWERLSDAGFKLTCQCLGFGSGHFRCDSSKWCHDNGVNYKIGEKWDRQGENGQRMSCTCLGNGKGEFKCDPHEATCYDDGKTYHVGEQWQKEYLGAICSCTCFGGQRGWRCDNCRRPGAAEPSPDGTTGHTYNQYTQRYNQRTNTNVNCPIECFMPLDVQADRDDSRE

For the substance “SVEP1: recombinant murine SVEP1 extracellular matrix protein with Myc and poly-histidine tag, expressed in 293F cells”, the “expression of canonical Notch targets Hey2 and Hes 1” value in [1] was “significantly increased expression”. The “activation of AKT signaling (phospho-AKT)” value in assay [2] was “necessary to activate AKT signaling”. Moreover, the AKT signaling result in assay [3] is “activated”. In addition, the “phosphorylation of FAK, Paxillin, Src, ERK and p38” value in [4] is “increased phosphorylation”. Moreover, the “phosphorylated mTOR (Ser 2448) and p70S6K Thr 389, immunoblot” value in [5] (10 or 30 minutes) was “activation of mTOR signaling”. Besides, the AKT pathway phospho-proteins entry in assay [5] (10 minutes of exposure) is recorded as “Few changes”. Also, the “mTOR pathway phospho-proteins (p70S6K, RPS6, 4E-BP1)” value in assay [5] (30 minutes of exposure) was “elevated”. For the same substance, the “adhesion of VSMCs” value in assay [6] is reported as “adhere to SVEP1 in a dose-dependent manner”. For the same substance, the “co-immunoprecipitation of Pearl 1ECD with Myc-tagged SVEP1” value in assay [7] is reported as “co-immunoprecipitates”. The “pulldown of Fibronectin” value in assay [8] is “confirmed”. The “adhesion of THP-1 cells” value in assay [9] was “adhered to SVEP1 in a dose-dependent manner”. In assay [10] (293T cells transfected with Pearl 1-expression plasmid (constitutive AKT activation)), the pAKT levels result is recorded as “no additional effect on pAKT levels”. Further, the AKT activation result in assay [10] (293T cells, which lack Pearl 1) is reported as “Neither SVEP1 nor Pearl 1 pAb activated AKT”. For the same substance, in assay [11] (freshly isolated human platelets, soluble SVEP1), the platelet receptor density result was “lower levels of receptor CD42b and CD61”. Besides, the “integrin aIIbβ3 activation (active CD41/61)” value in assay [11] (isolated human platelets, basal and with ADP, TRAP6) is on record as “increased”. For the same substance, in [11] (isolated human platelets, with ADP, TRAP6), the P-selectin expression entry is “increased”.
